Measurements taken from US6525001B1, “Substituted pyrimidine and pyridine herbicides” (Mid-American Commercialization Corporation, priority 1997, dated 2003).

Experiments:
Type in all cases: in vivo
[1] = system: redroot pigweed (Amaranthus retroflexus); test: Test C; design: key: 0 was no effect; 100 was complete control; conditions: PREEMERGENCE
[2] = system: cocklebur (Xanthium strumarium); test: Test C; design: key: 0 was no effect; 100 was complete control; conditions: PREEMERGENCE
[3] = system: johnson grass (Sorghum halepense); test: Test E pre-/postemergence/post directed
Text: (§1) Seeds, tubers, or plant parts of alexandergrass (Brachiaria plantaginea), annual bluegrass (Poa annua), arrowleaf sida (Sida rhombifolia), barnyardgrass (Echinochloa crus-galli), bermudagrass (Cynodon dactylon), citrus (Citrus sinensis), common chickweed (Stellaria media), common purslane (Portulaca oleracea), common ragweed (Ambrosia elatior), common groundsel (Senecio vulgaris), dallisgrass (Paspalum dilatatum), goosegrass (Eleusine indica), green foxtail (Setaria viridis), guineagrass (Panicum maximum), itchgrass (Rottboellia exaltata), johnson grass (Sorghum halepense), kochia (Kochia scoparia), large crabgrass (Digitaria sanguinalis), leafy spurge (Euphorbia esula), pitted morningglory (Ipomoea lacunosa), purple nutsedge (Cyperus rotundus), quackgrass (Agropyron repens), Russian thistle (Salsola kali), sandbur (Cenchrus echinatus), sourgrass (Trichachne insularis), Spanishneedles (Bidens bipinnata), sugarcane (Saccharum officinarum), surinam grass (Brachiaria decumbens) and tall mallow (Malva sylvestris) were planted into greenhouse pots of flats containing greenhouse planting medium. Plant species were grown grown in separate pots or individual compartments. Preemergence applications were made within one day of planting the seed or plant part. Postemergence applications were applied when the plants were in the two to four leaf stage (three to twenty cm).
(§2) Test chemicals were formulated in a non-phytotoxic solvent mixture which included a surfactant and applied preemergence to the soil surface, postemergence to the plants or as a post directed spray to plants and soil at the base of the target species. Untreated control plants and treated plants were placed in the greenhouse and visually evaluated for injury 13 to 21 days after herbicide application. Plant response ratings, summarized in Table E, are based on a 0 to 100 scale where 0 is no injury and 100 is complete control. A dash (−) response means no test result.

[4] = system: common ragweed (Ambrosia elatior); test: Test E pre-/postemergence/post directed
Text: as §1, §2

[5] = system: common groundsel (Senecio vulgaris); test: Test E pre-/postemergence/post directed; conditions: PREEMERGENCE
Text: as §1, §2

[6] = system: Spanishneedles (Bidens bipinnata); test: Test E pre-/postemergence/post directed
Text: as §1, §2

[7] = system: itchgrass (Rottboellia exaltata); test: Test E pre-/postemergence/post directed
Text: as §1, §2

[8] = system: pitted morningglory (Ipomoea lacunosa); test: Test E pre-/postemergence/post directed
Text: as §1, §2

[9] = system: surinam grass (Brachiaria decumbens); test: Test E pre-/postemergence/post directed
Text: as §1, §2

[10] = system: sandbur (Cenchrus echinatus); test: Test E pre-/postemergence/post directed
Text: as §1, §2

[11] = system: alexandergrass (Brachiaria plantaginea); test: Test E pre-/postemergence/post directed
Text: as §1, §2

[12] = system: bermudagrass (Cynodon dactylon); test: Test E pre-/postemergence/post directed
Text: as §1, §2

[13] = system: large crabgrass (Digitaria sanguinalis); test: Test E pre-/postemergence/post directed
Text: as §1, §2

[14] = system: field bindweed (Convolvulus arvensis); test: Test C; design: key: 0 was no effect; 100 was complete control; conditions: PREEMERGENCE
[15] = system: common purslane (Portulaca oleracea); test: Test E pre-/postemergence/post directed; design: key: 0 is no effect; 100 is complete control
In short: (§3)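 Injury was scored visually on a 0 to 100 scale (100 = complete control) 13 to 21 days after treatment of greenhouse-grown plants. Test chemicals, in a surfactant-containing non-phytotoxic solvent, were sprayed onto soil within a day of planting, onto plants at the two to four leaf stage, or directed at the base of the plants.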

[16] = system: common ragweed (Ambrosia elatior); test: Test E pre-/postemergence/post directed; design: key: 0 is no effect; 100 is complete control; conditions: PREEMERGENCE, Rate 125 g/ha
In short: as §3

[17] = system: goosegrass (Eleusine indica); test: Test E pre-/postemergence/post directed; design: key: 0 is no effect; 100 is complete control
In short: as §3

[18] = system: bermudagrass (Cynodon dactylon); test: Test E pre-/postemergence/post directed; design: key: 0 is no effect; 100 is complete control; conditions: PREEMERGENCE, Rate 125 g/ha
In short: as §3

[19] = system: large crabgrass (Digitaria sanguinalis); test: Test E pre-/postemergence/post directed; design: key: 0 is no effect; 100 is complete control; conditions: PREEMERGENCE
In short: as §3

[20] = system: johnsongrass (Sorghum halepense); test: Test C; conditions: PREEMERGENCE

## Cc1cnc(-n2ccc(C(F)(F)F)n2)nc1Cn1ccc(C(F)(F)F)n1 [Compound 52]
[1]; Rate 35 g/ha
  Plant response rating, Redroot pigweed: 100
[1]; Rate 70 g/ha
  Plant response rating, Redroot pigweed: 100
[1]; Rate 140 g/ha
  Plant response rating, Redroot pigweed: 100
[2]; Rate 70 g/ha
  Plant response rating, Cocklebur: 0
[2]; Rate 140 g/ha
  Plant response rating, Cocklebur: 20
[3]; POSTEMERGENCE, Rate 125 g/ha
  Plant response rating, Johnsongrass: 35
[3]; POSTEMERGENCE, Rate 250 g/ha
  Plant response rating, Johnsongrass: 20
[3]; PREEMERGENCE, Rate 64 g/ha
  Plant response rating, Johnsongrass: 50
[3]; PREEMERGENCE, Rate 125 g/ha
  Plant response rating, Johnsongrass: 75
[4]; POSTEMERGENCE, Rate 125 g/ha
  Plant response rating, Com. ragweed: 50
[4]; POSTEMERGENCE, Rate 250 g/ha
  Plant response rating, Com. ragweed: 80
[4]; PREEMERGENCE, Rate 32 g/ha
  Plant response rating, Com. ragweed: 35
[4]; PREEMERGENCE, Rate 64 g/ha
  Plant response rating, Com. ragweed: 80
[5]; Rate 32 g/ha
  Plant response rating, Com. groundsel: 35
[5]; Rate 64 g/ha
  Plant response rating, Com. groundsel: 98
[6]; POSTEMERGENCE, Rate 125 g/ha
  Plant response rating, Spanishneedles: 65
[6]; POSTEMERGENCE, Rate 250 g/ha
  Plant response rating, Spanishneedles: 60
[6]; PREEMERGENCE, Rate 32 g/ha
  Plant response rating, Spanishneedles: 20
[6]; PREEMERGENCE, Rate 64 g/ha
  Plant response rating, Spanishneedles: 20
[6]; PREEMERGENCE, Rate 125 g/ha
  Plant response rating, Spanishneedles: 35
[7]; POSTEMERGENCE, Rate 125 g/ha
  Plant response rating, Itchgrass: 35
[7]; POSTEMERGENCE, Rate 250 g/ha
  Plant response rating, Itchgrass: 40
[7]; PREEMERGENCE, Rate 32 g/ha
  Plant response rating, Itchgrass: 35
[7]; PREEMERGENCE, Rate 64 g/ha
  Plant response rating, Itchgrass: 70
[7]; PREEMERGENCE, Rate 125 g/ha
  Plant response rating, Itchgrass: 80
[8]; POSTEMERGENCE, Rate 125 g/ha
  Plant response rating, P. morninglory: 80
[8]; POSTEMERGENCE, Rate 250 g/ha
  Plant response rating, P. morninglory: 80
[8]; PREEMERGENCE, Rate 32 g/ha
  Plant response rating, P. morninglory: 50
[9]; POSTEMERGENCE, Rate 125 g/ha
  Plant response rating, Surinam grass: 75
[9]; POSTEMERGENCE, Rate 250 g/ha
  Plant response rating, Surinam grass: 75
[9]; PREEMERGENCE, Rate 32 g/ha
  Plant response rating, Surinam grass: 30
[9]; PREEMERGENCE, Rate 64 g/ha
  Plant response rating, Surinam grass: 70
[9]; PREEMERGENCE, Rate 125 g/ha
  Plant response rating, Surinam grass: 80
[10]; POSTEMERGENCE, Rate 125 g/ha
  Plant response rating, Sandbur: 5
[10]; POSTEMERGENCE, Rate 250 g/ha
  Plant response rating, Sandbur: 60
[10]; PREEMERGENCE, Rate 64 g/ha
  Plant response rating, Sandbur: 10
[10]; PREEMERGENCE, Rate 125 g/ha
  Plant response rating, Sandbur: 50
[11]; POSTEMERGENCE, Rate 125 g/ha
  Plant response rating, Alexandergrass: 10
[11]; POSTEMERGENCE, Rate 250 g/ha
  Plant response rating, Alexandergrass: 75
[11]; PREEMERGENCE, Rate 32 g/ha
  Plant response rating, Alexandergrass: 20
[11]; PREEMERGENCE, Rate 64 g/ha
  Plant response rating, Alexandergrass: 75
[11]; PREEMERGENCE, Rate 125 g/ha
  Plant response rating, Alexandergrass: 75
[12]; POSTEMERGENCE, Rate 125 g/ha
  Plant response rating, Bermudagrass: 35
[12]; POSTEMERGENCE, Rate 250 g/ha
  Plant response rating, Bermudagrass: 35
[12]; PREEMERGENCE, Rate 32 g/ha
  Plant response rating, Bermudagrass: 70
[12]; PREEMERGENCE, Rate 64 g/ha
  Plant response rating, Bermudagrass: 90
[13]; POSTEMERGENCE, Rate 125 g/ha
  Plant response rating, Large crabgrass: 5
[13]; POSTEMERGENCE, Rate 250 g/ha
  Plant response rating, Large crabgrass: 80
[13]; PREEMERGENCE, Rate 32 g/ha
  Plant response rating, Large crabgrass: 98
[14]; Rate 35 g/ha
  Plant response rating, Field bindweed: 100
[14]; Rate 70 g/ha
  Plant response rating, Field bindweed: 100
[14]; Rate 140 g/ha
  Plant response rating, Field bindweed: 100
[15]; POSTEMERGENCE, Rate 125 g/ha
  Plant response rating, Com. purslane: 50
[15]; POSTEMERGENCE, Rate 250 g/ha
  Plant response rating, Com. purslane: 75
[15]; PREEMERGENCE, Rate 32 g/ha
  Plant response rating, Com. purslane: 100
[15]; PREEMERGENCE, Rate 64 g/ha
  Plant response rating, Com. purslane: 100
[15]; PREEMERGENCE, Rate 125 g/ha
  Plant response rating, Com. purslane: 100
[16]
  Plant response rating, Com. ragweed: 100
[17]; POSTEMERGENCE, Rate 125 g/ha
  Plant response rating, Goosegrass: 5
[17]; POSTEMERGENCE, Rate 250 g/ha
  Plant response rating, Goosegrass: 75
[17]; PREEMERGENCE, Rate 32 g/ha
  Plant response rating, Goosegrass: 20
[17]; PREEMERGENCE, Rate 64 g/ha
  Plant response rating, Goosegrass: 100
[17]; PREEMERGENCE, Rate 125 g/ha
  Plant response rating, Goosegrass: 100
[18]
  Plant response rating, Bermudagrass: 100
[19]; Rate 64 g/ha
  Plant response rating, Large crabgrass: 100
[19]; Rate 125 g/ha
  Plant response rating, Large crabgrass: 100
[20]; Rate 35 g/ha
  Plant response rating, Johnsongrass: 40
[20]; Rate 70 g/ha
  Plant response rating, Johnsongrass: 50
[20]; Rate 140 g/ha
  Plant response rating, Johnsongrass: 80
